# Test system: Her2 receptor expression at the surface of SKBr3 cells
# Assay: phenotypic SKBr3/HER2 cell test (Her2 surface expression by flow cytometry)
# Format: cell-based
# Conditions: 24 h incubation, inhibition of Her2 expression
# Procedure: The cellular activity of the compounds can in particular be evaluated by means of the phenotypic “SKBr3/HER2” cell test described below:
# The SKBr3 […] adenocarcinoma cells, overexpressing the Her2 tyrosine kinase receptor, originate from the ATCC (HTB-30) and are cultured in McCoy's 5A medium supplemented with 10% FBS and 1% L-glutamine.
# The cells are seeded in 12-well plates at a proportion of 125 000 cells per well in 1 ml of complete medium. The following day, the products are added at varying concentrations. After incubation for 24 h, the cells are trypsinized, washed with PBS and incubated with 100 ng of anti-Her2 antibody coupled to PE (Phycoerythrin) (BD 340552) for 30 minutes at 4° C. in the dark. The fluorescence due to the expression of the Her2 receptor at the surface of the cells is then read using a FACS Calibur flow cytometer (Becton-Dickinson). The percentage inhibition of Her2 expression as a function of the concentrations of product tested is fitted by the nonlinear regression technique (XLfit, equation 205) in order to measure an IC50 for each product.
row,IC50,Compound
1,< 1000 nM,"NC(=O)c1ccc(-n2c3ccccc3c3c(-c4nc5cc(F)ccc5[nH]4)cccc32)cc1N[C@H]1CCCC[C@@H]1CO (single isomer, unassigned) [Example 131]"

# Same assay, conditions: Homo sapiens, SK-BR-3, 24 h incubation, inhibition of Her2 expression
row,Compound,IC50
1,NC(=O)c1ccc(-n2c3ccccc3c3c(-c4nc5ccc(F)cc5[nH]4)cccc32)cc1NC[C@@H]1CCCC[C@@H]1O (racemic) [Example 93],< 1000 nM
2,NC(=O)c1ccc(-n2c3ccccc3c3c(-c4nc5ccc(F)cc5[nH]4)cccc32)cc1N[C@H]1CCCC[C@H]1CO (racemic) [Example 96],< 1000 nM
3,"NC(=O)c1ccc(-n2c3ccccc3c3c(-c4nc5ccc(F)cc5[nH]4)cccc32)cc1N[C@H]1CCC[C@H]1CO (racemic) [Example 118, 4-[4-(6-fluoro-1H-benzimidazol-2-yl)-9H-carbazol-9-yl]-2-[2(R,S)-hydroxymethylcyclopentan-1(S,R)-amino]benzamide]",< 1000 nM
4,"COCCCOc1cc(-n2c3ccccc3c3c(-c4nc5ccc(F)cc5[nH]4)cccc32)ccc1C(N)=O [Example 60, 4-[4-(6-fluoro-1H-benzimidazol-2-yl)-9H-carbazol-9-yl]-2-(3-methoxypropoxy)benzamide]",1000 to 10000 nM
5,"NC(=O)c1ccc(-n2c3ccccc3c3c(-c4cncc(O)c4)cccc32)cc1N[C@H]1CC[C@H](O)CC1 [Example 73, 2-[(4-trans-hydroxycyclohexyl)amino]-4-[4-(5-hydroxypyridin-3-yl)-9H-carbazol-9-yl]benzamide]",< 1000 nM
6,"NC(=O)c1ccc(-n2c3ccccc3c3c(-c4ccc(C(F)(F)F)nc4)cccc32)cc1N[C@H]1CC[C@H](O)CC1 [Example 74, 2-[(4-trans-hydroxycyclohexyl)amino]-4-{4-[6-(trifluoromethyl)pyridin-3-yl]-9H-carbazol-9-yl}benzamide]",1000 to 10000 nM
7,"NC(=O)c1ccc(-n2c3ccccc3c3c(-c4nc5ccc(F)cc5[nH]4)cccc32)cc1NCCCF [Example 75, 4-[4-(6-fluoro-1H-benzimidazol-2-yl)-9H-carbazol-9-yl]-2-(3-fluoropropylamino)benzamide]",< 1000 nM
8,"NC(=O)c1ccc(-n2c3ccccc3c3c(-c4cnc5ccccc5c4)cccc32)cc1NCCF [Example 77, 2-(2-fluoroethylamino)-4-[4-(quinolin-3-yl)-9H-carbazol-9-yl]benzamide]",< 1000 nM
9,"NC(=O)c1ccc(-n2c3ccccc3c3c(-c4nc5ccc(F)cc5[nH]4)cccc32)cc1NCCc1ccccn1 [Example 79, 4-[4-(6-fluoro-1H-benzimidazol-2-yl)-9H-carbazol-9-yl]-2-[2-(pyridin-2-yl)ethylamino]benzamide]",< 1000 nM
10,"NC(=O)c1ccc(-n2c3ccccc3c3c(-c4cnc5ccccc5c4)cccc32)cc1NCCc1ccccn1 [Example 80, 4-[4-(quinolin-3-yl)-9H-carbazol-9-yl]-2-[2-(pyridin-2-yl)ethylamino]benzamide]",< 1000 nM
11,"NC(=O)c1ccc(-n2c3ccccc3c3c(-c4nc5ccc(F)cc5[nH]4)cccc32)cc1NCc1ccccn1 [Example 81, 4-[4-(6-fluoro-1H-benzimidazol-2-yl)-9H-carbazol-9-yl]-2-[(pyridin-2-ylmethyl)amino]benzamide]",< 1000 nM
12,"NC(=O)c1ccc(-n2c3ccccc3c3c(-c4nc5ccc(F)cc5[nH]4)cccc32)cc1NCCn1ccnc1 [Example 82, 4-[4-(6-fluoro-1H-benzimidazol-2-yl)-9H-carbazol-9-yl]-2-[2-(1H-imidazol-1-yl]ethylamino]benzamide]",< 1000 nM
13,CC1(C)CC(Nc2cc(-n3c4ccccc4c4c(-c5nc6ccc(F)cc6[nH]5)cccc43)ccc2C(N)=O)CC(C)(C)N1 [Example 83],< 1000 nM
14,"NC(=O)c1ccc(-n2c3ccccc3c3c(-c4cnc5ccccc5c4)cccc32)cc1NCCn1ccnc1 [Example 87, 2-[2-(1H-imidazol-1-yl)ethylamino]-4-[4-(quinolin-3-yl)-9H-carbazol-9-yl]benzamide]",< 1000 nM
15,"CC(C)(O)CNc1cc(-n2c3ccccc3c3c(-c4nc5ccc(F)cc5[nH]4)cccc32)ccc1C(N)=O [Example 90, 4-[4-(6-fluoro-1H-benzimidazol-2-yl)-9H-carbazol-9-yl]-2-(2-hydroxy-2-methylpropylamino)benzamide]",< 1000 nM
16,"NC(=O)c1ccc(-n2c3ccccc3c3c(-c4nc5ccc(F)cc5[nH]4)cccc32)cc1NCc1cocn1 [Example 92, 4-[4-(6-fluoro-1H-benzimidazol-2-yl)-9H-carbazol-9-yl]-2-[(oxazol-4-ylmethyl)amino]benzamide]",< 1000 nM
17,"NC(=O)c1ccc(-n2c3ccccc3c3c(-c4cnc5ccccc5c4)cccc32)cc1NCc1cocn1 [Example 94, 2-[(oxazol-4-ylmethyl)amino]-4-[4-(quinolin-3-yl)-9H-carbazol-9-yl]benzamide]",< 1000 nM
18,"NC(=O)c1ccc(-n2c3ccccc3c3c(-c4nc5ccc(F)cc5[nH]4)cccc32)cc1N[C@H]1CN2CCC1CC2 [Example 98, 2-{(R)-(1-azabicyclo[2.2.2]oct-3-yl)amino}-4-[4-(6-fluoro-1H-benzimidazol-2-yl)-9H-carbazol-9-yl]benzamide]",< 1000 nM

# The remaining lines, values ahead:
row,IC50,Compound
1,< 1000 nM,NC(=O)c1ccc(-n2c3ccccc3c3c(-c4cnc5ccccc5c4)cccc32)cc1NC[C@@H]1CCCC[C@@H]1O (racemic) [Example 95]
2,< 1000 nM,NC(=O)c1ccc(-n2c3ccccc3c3c(-c4nc5ccc(F)cc5[nH]4)cccc32)cc1N[C@H]1CCCC[C@@H]1CO (racemic) [Example 97]
3,< 1000 nM,"NC(=O)c1ccc(-n2c3ccccc3c3c(-c4cnc5ccccc5c4)cccc32)cc1N[C@H]1CCCC[C@@H]1CO (racemic) [Example 100, 2-[1(R,S),2(R,S)-2-hydroxymethyl-cyclohexyl-1-amino]-4-[4-(quinolin-3-2-yl)-9H-carbazol-9-yl]benzamide]"
4,< 1000 nM,"NC(=O)c1ccc(-n2c3ccccc3c3c(-c4cnc5ccccc5c4)cccc32)cc1N[C@H]1CCCC[C@H]1CO (racemic) [Example 101, 2-[1(S,R),2(R,S)-2-hydroxymethylcyclohexyl-1-amino]-4-[4-(quinolin-3-2-yl)-9H-carbazol-9-yl]benzamide]"
5,< 1000 nM,"NC(=O)c1ccc(-n2c3ccccc3c3c(-c4nc5cc(F)ccc5[nH]4)cccc32)cc1N[C@H]1CCCC[C@@H]1CO (single isomer, unassigned) [Example 130]"
6,< 1000 nM,"CN1CCC(O)(CCNc2cc(-n3c4ccccc4c4c(-c5nc6ccc(F)cc6[nH]5)cccc43)ccc2C(N)=O)CC1 [Example 70, 4-[4-(6-fluoro-1H-benzimidazol-2-yl)-9H-carbazol-9-yl]-2-[2-(4-hydroxy-1-methylpiperidin-4-yl)ethylamino]benzamide]"
7,< 1000 nM,"NC(=O)c1ccc(-n2c3ccccc3c3c(-c4nc5ccc(F)cc5[nH]4)cccc32)cc1NCCC1(O)CCCC1 [Example 71, 4-[4-(6-fluoro-1H-benzimidazol-2-yl)-9H-carbazol-9-yl]-2-[2-(1-hydroxycyclopentyl)ethylamino]benzamide]"
8,< 1000 nM,"CC(C)(O)CCNc1cc(-n2c3ccccc3c3c(-c4cnc5ccccc5c4)cccc32)ccc1C(N)=O [Example 72, 2-(3-hydroxy-3-methylbutylamino)-4-[4-(quinolin-3-yl)-9H-carbazol-9-yl]benzamide]"
9,< 1000 nM,"NC(=O)c1ccc(-n2c3ccccc3c3c(-c4cnc5ccccc5c4)cccc32)cc1NCCCF [Example 76, 2-(3-fluoropropylamino)-4-[4-(quinolin-3-yl)-9H-carbazol-9-yl]benzamide]"
10,1000 to 10000 nM,"NC(=O)c1ccc(-n2c3ccccc3c3c(-c4cnc5ccccc5c4)cccc32)cn1 [Example 78, 5-[4-(quinolin-3-yl)-9H-carbazol-9-yl]pyridin-2-amide]"
11,< 1000 nM,"CC1(C)CC(Nc2cc(-n3c4ccccc4c4c(-c5cnc6ccccc6c5)cccc43)ccc2C(N)=O)CC(C)(C)N1 [Example 84, 4-[4-(quinolin-3-yl)-9H-carbazol-9-yl]-2-(2,2,6,6-tetramethyl-1H-piperidin-4-ylamino]benzamide]"
12,< 1000 nM,"CN1C(C)(C)CC(Nc2cc(-n3c4ccccc4c4c(-c5nc6ccc(F)cc6[nH]5)cccc43)ccc2C(N)=O)CC1(C)C [Example 85, 4-[4-(6-fluoro-1H-benzimidazol-2-yl)-9H-carbazol-9-yl]-2-(1,2,2,6,6-pentamethyl-1H-piperidin-4-ylamino]benzamide]"
13,< 1000 nM,"NC(=O)c1ccc(-n2c3ccccc3c3c(-c4cnc5ccccc5c4)cccc32)cc1NCc1ccccn1 [Example 86, 2-[(pyridin-2-ylmethyl)amino]-4-[4-(quinolin-3-yl)-9H-carbazol-9-yl]benzamide]"
14,< 1000 nM,"CN1C(C)(C)CC(Nc2cc(-n3c4ccccc4c4c(-c5cnc6ccccc6c5)cccc43)ccc2C(N)=O)CC1(C)C [Example 88, (1,2,2,6,6-pentamethyl-1H-piperidin-4-ylamino]-4-[4-(quinolin-3-yl)-9H-carbazol-9-yl]-2-benzamide]"
15,< 1000 nM,"NC(=O)c1ccc(-n2c3ccccc3c3c(-c4nc5ccc(F)cc5[nH]4)cccc32)cc1NC1CCCC(O)C1 [Example 89, 4-[4-(6-fluoro-1H-benzimidazol-2-yl)-9H-carbazol-9-yl]-2-(3(R,S)-hydroxycyclohexyl-1(R,S)-amino)benzamide]"
16,< 1000 nM,"CC(C)(O)CNc1cc(-n2c3ccccc3c3c(-c4cnc5ccccc5c4)cccc32)ccc1C(N)=O [Example 91, (2-hydroxy-2-methylpropylamino)-4-[4-(quinolin-3-yl)-9H-carbazol-9-yl]-2-benzamide]"

# Reference: US8309721B2, “HSP90 inhibitory carbazole derivatives, compositions containing same and use thereof” (Sanofi, priority 2008, dated 2012)
